The source of these data is publication PMC9217908, “Screening of commonly prescribed drugs for effects on the CAT1-mediated transport of L-arginine and arginine derivatives” (Amino Acids, 2022).

Assay in all cases: cell-based
Assay [1] concerns the target T1, CAT1 (cationic amino acid transporter 1, CAT1/SLC7A1) (Homo sapiens, UniProt P30825).
T1 construct: full-length human transporter stably transfected in HEK cells (HEK-CAT1); net uptake against HEK-VC vector control cells
On the set-up: species or system HEK-CAT1 (HEK293 stably transfected); Inhibition of net CAT1-mediated [3H]-ADMA (1 uM) uptake, 2.5 min, scintillation counting, vector control subtracted. To be noted: HEK293, ADMA 1 uM as substrate; for inhibition at 20 µM: read-out: % Inhibition of ADMA uptake at 20 µM; for inhibition at 200 µM: read-out: % Inhibition of ADMA uptake at 200 µM. As for the experimental part: (§1) Uptake and inhibition assays using HEK-CAT1 and HEK-VC cells and L-arginine, L-homoarginine, and ADMA as substrates were performed using the protocol described (Strobel et al. [2012]; Chafai et al. [2017]). Briefly, after incubation, the supernatant was replaced with transport buffer containing [^3H]- L-arginine for 5 min and 2.5 min for medium containing [^3H]-L-homoarginine or [^3H]-ADMA with or without the test compound. The reference drugs were screened at concentrations of 20 µM (Figs. 1A, 2A, and 3A) and 200 µM (Figs. 1B, 2B, and 3B). […] The net uptake was determined by subtracting the total amount taken up by control cells from the amount taken up by CAT1-expressing cells, which was expressed as a percentage of the amount taken up by the control. To determine the inhibitory effects of the drugs on CAT1-mediated transport of L-arginine, L-homoarginine, or ADMA, the control was measured in the absence of the potential inhibitor. The value for the percent inhibition was calculated as: Inhibition (%) = 100 – (V/V0 ^* 100), where V and V0 are the net uptake rates (uptake into HEK-CAT1 cells—uptake into HEK-VC cells) with and without test drugs, respectively. […] Each bar represents the effect of one compound on CAT1-mediated ADMA (1 μM) uptake as percent inhibition. Data were obtained from at least two independent experiments performed in triplicate (n = 6–9) and each test data from the independent experiment were normalized to the respective control data to get the value of percent inhibition. Negative inhibition values indicate stimulated CAT1-mediated uptake. Data were analyzed using one-way ANOVA and Dunnett’s multiple comparison test with p < 0.05. Bars showing a statistically significant inhibition or transport stimulation are shaded in black

Assay [2] addresses T1, CAT1 (cationic amino acid transporter 1, CAT1/SLC7A1). On the set-up: species or system HEK-CAT1 (HEK293 stably transfected); Inhibition of net CAT1-mediated [3H]-L-arginine (100 uM) uptake, 5 min, scintillation counting, vector control subtracted. To be noted: HEK293, L-arginine 100 uM as substrate; for inhibition at 20 µM: read-out: % Inhibition of L-arginine uptake at 20 µM; for inhibition at 200 µM: read-out: % Inhibition of L-arginine uptake at 200 µM. As for the experimental part:
as §1, with “L-arginine (100” for “ADMA (1”

Assay [3] has the same target. On the set-up: species or system HEK-CAT1 (HEK293 stably transfected); Inhibition of net CAT1-mediated [3H]-L-homoarginine (1 uM) uptake, 2.5 min, scintillation counting, vector control subtracted. The following applies: HEK293, L-homoarginine 1 uM as substrate; for inhibition at 20 µM: read-out: % Inhibition of L-homoarginine uptake at 20 µM; for inhibition at 200 µM: read-out: % Inhibition of L-homoarginine uptake at 200 µM. As for the experimental part:
as §1, with “CAT1-mediated L-homoarginine” for “CAT1-mediated ADMA”

Read-outs that look alike come from different tables or passages of the source.

T1 sequence (P30825 whole entry): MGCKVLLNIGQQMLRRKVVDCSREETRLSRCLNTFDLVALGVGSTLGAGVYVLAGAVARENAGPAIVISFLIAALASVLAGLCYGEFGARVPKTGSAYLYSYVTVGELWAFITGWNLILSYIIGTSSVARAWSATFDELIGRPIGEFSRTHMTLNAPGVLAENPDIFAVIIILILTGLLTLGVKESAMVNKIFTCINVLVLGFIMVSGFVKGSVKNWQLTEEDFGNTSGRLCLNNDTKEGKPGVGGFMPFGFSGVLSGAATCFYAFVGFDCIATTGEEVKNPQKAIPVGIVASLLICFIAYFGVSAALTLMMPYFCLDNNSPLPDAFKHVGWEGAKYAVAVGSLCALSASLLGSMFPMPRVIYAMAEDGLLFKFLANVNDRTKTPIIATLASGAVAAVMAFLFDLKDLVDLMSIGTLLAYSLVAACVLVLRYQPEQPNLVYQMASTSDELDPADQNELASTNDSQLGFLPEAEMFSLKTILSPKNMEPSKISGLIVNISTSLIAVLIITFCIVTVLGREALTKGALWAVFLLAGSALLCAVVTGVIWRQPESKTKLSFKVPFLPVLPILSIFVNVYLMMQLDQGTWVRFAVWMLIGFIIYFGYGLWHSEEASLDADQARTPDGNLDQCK

With `CN(C)CCCC1(c2ccc(F)cc2)OCc2cc(C#N)ccc21` (stereo not shown) [Citalopram], the values for the inhibition at 20 µM in assay [1], in assay [2] and in assay [3] were 8.8 ± 3.3%, -16.7 ± 9.2% and 8.8 ± 3.3%, respectively. Also, the inhibition at 200 µM is -15.6 ± 8.1% in assay [1], 42.8 ± 4.1% in assay [2] and 29.6 ± 3.1% in assay [3].
For the molecule `CN(Cc1cnc2nc(N)nc(N)c2n1)c1ccc(C(=O)N[C@@H](CCC(=O)O)C(=O)O)cc1` [Methotrexate], the inhibition at 20 µM in assay [1] is 5.4 ± 4.3%; in assay [2], 22.3 ± 0.8%; in assay [3] it was 19.5 ± 1%. In addition, the figures for the inhibition at 200 µM in assay [1], in assay [2] and in assay [3] were 9.9 ± 4.5%, -7.1 ± 2.1% and -6.8 ± 0.9%, respectively.
Take `CC#C[C@]1(O)CC[C@H]2[C@@H]3CCC4=CC(=O)CCC4=C3[C@@H](c3ccc(N(C)C)cc3)C[C@@]21C` [Mifepristone]: the inhibition at 20 µM came to 8.1 ± 11.4% in assay [1], 24.6 ± 0.6% in assay [2] and 8.5 ± 11.1% in assay [3]. In addition, the inhibition at 200 µM is 5.6 ± 3.7% in assay [1], -19.9 ± 4.4% in assay [2] and -15 ± 1.6% in assay [3].
Consider `C[C@H]1c2cccc(O)c2C(=O)C2=C(O)[C@]3(O)C(=O)C(C(N)=O)=C(O)[C@@H](N(C)C)[C@@H]3[C@@H](O)[C@@H]21` [Doxycycline], for which the inhibition at 20 µM in assay [1] is 3.1 ± 6%; in assay [2], 9.7 ± 4.1%; in assay [3], 9.7 ± 4.1%. For the same molecule, the inhibition at 200 µM in assay [1] came out at 9.9 ± 3.1%; in assay [2], 6.2 ± 0.6%; in assay [3] it was 9.6 ± 1.4%.
For `CC(=O)Nc1nnc(S(N)(=O)=O)s1` [Acetazolamide], the figures for the inhibition at 20 µM in assay [1], in assay [2] and in assay [3] were -1.5 ± 0.9%, -12.8 ± 12.9% and -10.9 ± 11.9%, respectively. Moreover, the inhibition at 200 µM in assay [1] came out at 9.7 ± 1.9%; in assay [2], 8.9 ± 3.9%; in assay [3], 8.8 ± 2.1%.
`CC[C@H]1OC(=O)[C@H](C)[C@@H](O[C@H]2C[C@@](C)(OC)[C@@H](O)[C@H](C)O2)[C@H](C)[C@@H](O[C@@H]2O[C@H](C)C[C@H](N(C)C)[C@H]2O)[C@](C)(OC)C[C@@H](C)C(=O)[C@H](C)[C@@H](O)[C@]1(C)O` [Clarithromycin]: the inhibition at 20 µM in assay [1] is -3.9 ± 5.3%; in assay [2], -16.8 ± 2.1%; in assay [3], -2.4 ± 2.1%. For the same molecule, the inhibition at 200 µM in assay [1] was -72.9 ± 1.6%; in assay [2], -14.3 ± 6.2%; in assay [3], -13.6 ± 3.3%.
Turning to `CCOC(=O)C1=C(COCCN)NC(C)=C(C(=O)OC)C1c1ccccc1Cl` (stereo not shown) [Amlodipine], the results for the inhibition at 20 µM in assay [1], in assay [2] and in assay [3] were -7.3 ± 1.7%, -3.9 ± 5.2% and -9.3 ± 3.3%, respectively. The inhibition at 200 µM in assay [1] is 4 ± 9.5%; in assay [2], -2.6 ± 3.9%; in assay [3], -3.9 ± 4.6%.
With `Cc1nccn1CC1CCc2c(c3ccccc3n2C)C1=O` (stereo not shown) [Ondansetron], the values for the inhibition at 20 µM in assay [1], in assay [2] and in assay [3] were -0.4 ± 5.9%, 8.8 ± 7.9% and -0.5 ± 5.9%, respectively. Besides, the figures for the inhibition at 200 µM in assay [1], in assay [2] and in assay [3] were 10.1 ± 2.3%, -5.7 ± 4.1% and -8.3 ± 1.6%, respectively.
As for `CC(=O)S[C@@H]1CC2=CC(=O)CC[C@]2(C)[C@H]2CC[C@@]3(C)[C@@H](CC[C@@]34CCC(=O)O4)[C@H]12` [Spironolactone], the values for the inhibition at 20 µM in assay [1], in assay [2] and in assay [3] were 3.2 ± 2.3%, -3.7 ± 5.3% and -3.9 ± 5.2%, respectively. Besides, the inhibition at 200 µM was -7.6 ± 2.1% in assay [1], -4.8 ± 6.6% in assay [2] and -11.5 ± 2.8% in assay [3].
In the case of `CNC(=C[N+](=O)[O-])NCCSCc1ccc(CN(C)C)o1` [Ranitidine], the inhibition at 20 µM was -0.5 ± 5.8% in assay [1], 7.8 ± 1.8% in assay [2] and -4 ± 0.4% in assay [3]. Further, the inhibition at 200 µM in assay [1] is 6.1 ± 3.4%; in assay [2], 2.9 ± 3.9%; in assay [3] it was 6.8 ± 0.6%.
As to `Cc1cc(=O)n(-c2ccccc2)n1C` [Antipyrine], the figures for the inhibition at 20 µM in assay [1], in assay [2] and in assay [3] were 1.9 ± 2.5%, -5.1 ± 7.2% and -8.2 ± 6%, respectively. For the same molecule, the inhibition at 200 µM is -1.2 ± 6.1% in assay [1], -12.7 ± 2.5% in assay [2] and 12.8 ± 1.4% in assay [3].
Consider `CN1CCC(=C2c3ccccc3CC(=O)c3sccc32)CC1` [Ketotifen], for which the figures for the inhibition at 20 µM in assay [1], in assay [2] and in assay [3] were 6.4 ± 4.4%, 23.9 ± 0.8% and 7 ± 4.2%, respectively. Moreover, the inhibition at 200 µM was found to be 1.4 ± 9.6% in assay [1], 9.9 ± 8.2% in assay [2] and 10.9 ± 2.6% in assay [3].
With `C#C[C@]1(O)CC[C@H]2[C@@H]3CCC4=CC(=O)CC[C@@H]4[C@H]3CC[C@@]21C` [Norethindrone], the inhibition at 20 µM is -3.8 ± 1.6% in assay [1], 26.9 ± 5% in assay [2] and 23.5 ± 4% in assay [3]. Further, the inhibition at 200 µM in assay [1] was -3.1 ± 0.5%; in assay [2], -19.7 ± 3.3%; in assay [3], -12.8 ± 9.6%.
On to `C[C@H](CS)C(=O)N1CCC[C@H]1C(=O)O` [Captopril], for which the inhibition at 20 µM was 0.5 ± 2.1% in assay [1], 0.6 ± 4.7% in assay [2] and 0.1 ± 4.5% in assay [3]. Besides, the inhibition at 200 µM in assay [1] was -19.6 ± 2.2%; in assay [2] it was -15.1 ± 13.1%; in assay [3] it was -15.9 ± 3%.
In the case of `CCC(C)(C)C(=O)O[C@H]1C[C@@H](C)C=C2C=C[C@H](C)[C@H](CC[C@@H]3C[C@@H](O)CC(=O)O3)[C@H]21` [Simvastatin], the inhibition at 20 µM in assay [1] was -18.1 ± 15%; in assay [2], -4.1 ± 0.6%. The inhibition at 200 µM in assay [1] is -4.2 ± 3.5%; in assay [2], -10.5 ± 3.3%.

As a reminder, the inhibition is the relative decrease from the control value, in per cent.
